Assay results: patent US20090098548A1, “MODULATORS OF ENZYMATIC NUCLEIC ACID ELEMENTS MOBILIZATION” (priority 2004, published 2009)
Entries after “also recorded” stand apart in the source; their conditions may differ.

Experiments:
[1] = test system: restriction enzyme BsmA I; assay: Inhibition of the restriction enzyme BsmA I (compound specificity); type: biochemical; details: 120 μM compound
Experimental: Inhibition of the restriction enzyme BsmA I was analyzed to determine compound specificity. Reactions were carried out in 2×NEB Buffer 3 with 160 nM dsDNA, 10 units of BsmA I (New England Biolabs), and 120 μM lead compound. Reactions were incubated at 55° C. for one hour followed by a 20 minute 80° C. heat inactivation step prior to gel electrophoresis. Samples were loaded onto a 9% native polyacrylamide gel and run at 300V for 2.5 hours. Gels were subsequently imaged and quantitated as described for the synapsis assays.

Tn5 transposase = target: T1, Tn5 transposase (Escherichia coli, UniProt Q46731, E54K/L372P/M56A); type: binding
T1 construct: made in house
Experimental: For FP analysis, 60 μL reactions were analyzed using the FP protocol on a Wallac Victor V plate reader and a 7% native polyacrylamide gel was used in gel shift assays. For compound screening and subsequent analysis, 1 μL of either DMSO or test compound (final concentration 80 KIM) was added to the synapsis reactions. Compound screening was carried out using a Beckman Coulter Biomek FX in a 384 well format. Compounds identified as hits were rescreened using gel shift assays under synapsis conditions with a 120 μM compound concentration. IC50 values were obtained by fitting inhibitor titration data (0, 0.01, 0.05, 0.1, 0.5, 2.5, 10, 20, 35, 50, 100, 200, 400, 800 μM) to an exponential decay.

HIV-1 = test system: HIV-1
Experimental: HIV-1 transduction assay and inhibitory screen: 10,000 Ghost-R5 cells per well were plated in a 384 well plate in 49 μL media. 18 hours after plating, 1 μL of inhibitory compound, dissolved in DMSO, was added and gently mixed into solution. Following a 1 hour 37° C. incubation, HIV-1 virions were added in a final infectious volume of 100 μL. 44-48 hours after infection, 87 μL of media was removed from each well, and 13 μL/well of Bright-Glo luciferase detection reagent (Promega) was added. After a 2 minute incubation, the plates were read on a multiwell plate luminometer.
In parallel, cells infected with virus and compound were assayed for luciferase expression by the addition of […] of Bright-Glo reagent, as described above. In this way, effect of the inhibitory compounds on luciferase expression brought about by successful transduction was measured in the constant presence of the compounds.

[2] = test system: luciferase expression from proviral DNA; assay: Established provirus luciferase expression in stably infected Ghost-R5 cells; type: cell-based, HIV-1; details: 75 μM inhibitor, chronically infected cells
Experimental: To assess the potential effects of the inhibitory compounds on post-integration events such as transcription, translation, and luciferase enzyme stability and activity, Ghost-R5 cells stably infected several weeks earlier with the same virus preparation were incubated with inhibitory compound in 96 well dishes and luciferase activity was monitored 48 hours later by the addition of 100 μL of Bright-Glo reagent to each well, as described above.

[3] = test system: HIV reverse transcription; assay: Quantitative real-time PCR of reverse transcripts in acutely infected cells; type: cell-based, HIV-1; details: 75 μM inhibitor, QPCR
Experimental: Quantitative real-time PCR of reverse transcripts, detection of transduction in newly infected cells, and effect of compounds on established provirus expression in stably infected cells: 10,000 Ghost-R5 cells were plated in 96 well dishes, treated with compound in a total volume of 75 μL, and incubated at 37° C. for 1 hour. Virus was then added in an additional volume of 25 μL. The final infectious volume was 100 μL, the final DMSO concentration was 1%, and the final compound concentration was as indicated. DNA was harvested using the DNeasy kit (Qiagen) 24 hours after infection in the constant presence of inhibitory compounds. Late DNA products of HIV reverse transcription were quantitated using the primers MH531 and MH532, and the probe LTR-P, as described in Burke, T. R. et al., J Med Chem 38:4171-8, 1995, herein incorporated by reference in its entirety.

HIV-1 integrase = HIV-1 integrase (Human immunodeficiency virus type 1 group M subtype B, UniProt P04585); assay: HIV-1 integrase assay (3' strand processing, PAGE); type: biochemical; parameters: made in house
Experimental: HIV-1 integrase assay: HIV-1 integrase activity was measured as described in Daniel, R. et al., AIDS Res Hum Retroviruses 20:135-44, 2004 (incorporated by reference in its entirety), except that 1.0 μL of either DMSO or inhibitor were added to the reactions. Briefly, HIV-1 integrase (1 μM, final concentration) was pre-incubated with various concentrations of inhibitor at 30° C. for 30 min. A 21-base pair ^32P labeled substrate (1×10^6 dpm), representing the U5 end of the viral genome, and MnCl2 (10 mM, final concentration) were subsequently added to the reaction. The reaction proceeded for 15 min. at 37° C. The reactions were subsequently quenched using EDTA (10 mM, final concentration), and the products separated on a 20% denaturing polyacrylamide gel.

Ghost-R5 cells = assay: Cytotoxicity assay (Cell Titer Glo); type: cell-based
Experimental: Cytotoxicity assay: Cytotoxicity assays were performed exactly as the infection assay described above, except media without virus was added following compound addition, and Cell Titer Glo (Promega) viability reagent was added in place of Bright Glo.

| SMILES | inhibition of BsmA I activity [1] | inhibition of transposase assembly (in words) (Tn5 transposase) | inhibition of HIV-1 infection in cells (in words) (HIV-1) | effect on luciferase expression from proviral DNA [2] | effect on reverse transcription (viral DNA synthesis) [3] | inhibition of integrase in vitro (in words) (HIV-1 integrase) | effect on gross cell viability (Ghost-R5 cells; 75 μM inhibitor) | LD50 relative to ED50 (Ghost-R5 cells; Ghost-R5 cells, cytotoxicity vs transduction) |
| --- | --- | --- | --- | --- | --- | --- | --- | --- |
| O=C(/C=C/c1ccccc1)C1=C(O)C(=O)N(c2cccc(C(F)(F)F)c2)C1c1ccc([N+](=O)[O-])cc1 (stereo not shown) [compound 10-F] | partially inhibits | inhibit | inhibit | no significant inhibitory effect | either uninhibited, or only inhibited to a small extent; also recorded: no significant inhibitory effect | inhibit | – | – |
| O=C(/C=C/c1ccccc1)C1=C(O)C(=O)N(c2ccccc2)C1c1cccc([N+](=O)[O-])c1 (stereo not shown) [compound 10] | – | inhibit | inhibit | no significant inhibitory effect | either uninhibited, or only inhibited to a small extent; also recorded: no significant inhibitory effect | inhibit | no significant inhibitory effect | at least 2 fold |
